Measured values taken from article PMC8402609, “Guiding the Immune Response to a Conserved Epitope in MSP2, an Intrinsically Disordered Malaria Vaccine Candidate” (Vaccines, 2021).
Read-outs that look alike come from different tables or passages of the source. Where a SMILES comes first, the peptide text is derived from it. Bridges are numbered along the chain shown (N, C = ends).

Tests used:
[1] = tested on: biotinylated 13-residue peptides (A-I) spanning the C-terminal region of MSP2; assay: Fine specificity of antisera by peptide array ELISA (peptides A-I); type: in vivo, mouse; conditions: individual sera of mice immunised with peptide-KLH conjugate or MSP2 mix, diluted 1:1000; indirect ELISA; peptides C-D span 9H4 epitope, E-G span 4D11 epitope
Protocol: Peptide was conjugated to maleimide-activated KLH (Sigma-Aldrich) following the manufacturer’s protocol. Briefly, 1 mg of each peptide was mixed with 1 mg KLH in the provided buffer for a 200-fold molar excess of peptide to carrier protein. The reaction mixture was degassed under nitrogen and mixed at room temperature (RT) for 2 h. Any unreacted peptide was removed by dialysis against PBS using a 10 kDa cut-off membrane. The extent of conjugation was determined using Ellman’s reagent. Peptide-KLH conjugate stock solution was stored at 4 °C until further use. Prior to immunisation, peptide-KLH conjugates were diluted to 1 mg/mL in PBS and formulated with Montanide ISA720 at an antigen:adjuvant ratio of 3:7 and a final concentration of 0.3 mg/mL. The 3D7 + FC27 MSP2 mix was formulated using 0.15 mg/mL of each allelic form. Female C57BL/6 mice (n = 6 per group) were inoculated subcutaneously with 100 µL containing 30 µg of antigen at weeks 0, 4 and 8, then euthanised at week 10. Sera were collected and stored at −80 °C.
To determine peptide-KLH binding to 4D11 and 9H4, Maxisorp 96-well microtitre plates (Nunc, Rochester, NY, USA) were coated overnight at 4 °C with 2 µg/mL peptide-KLH in PBS. The plates were blocked with 1% BSA in PBS for 1 h before adding 100 µL of 4D11 and 9H4 IgG in eleven half log10 serial dilutions starting from stock at 1 µg/mL. After 1 h incubation at 4 °C and washing, antigen-bound antibodies were detected with goat anti-mouse IgG (1:2000 dilution) and freshly prepared 2,2-azinobis(3-ethylbenzthiazolinesulfonic acid (ABTS) substrate (1 mm) in citric acid buffer, pH 4.2, containing […]. The absorbance was read at 405 nm using a microplate reader. For determination of peptide-specific antibody titres, peptide-BSA conjugate was coated on the plate at 2 µg/mL. Individual mouse sera were added at a starting dilution of 1000-fold with six half log10 serial dilutions. Endpoint titres were taken as the x-axis intercept of the dilution curve at an absorbance value of three standard deviations (s.d.) greater than OD405 for naïve mouse serum. The fine specificities of the antisera were determined by ELISA using an array of nine biotinylated 13-residue peptides (A-I), which overlap by 2 or 3 residues and spanned the C-terminal region of MSP2 [11, 13]. Maxisorp 96-well microtitre plates (Nunc) were coated overnight at 4 °C with 1 µg/mL streptavidin in PBS. The plates were blocked with 1% BSA in PBS for 2 h before adding 1:500 biotinylated peptides. Individual sera samples were diluted 1:1000 in blocking solution before addition to the peptide array. Antibody was detected with the same protocol as mentioned above.
To characterise the response against these dimeric peptides further, the specificity of the induced antibodies was determined by indirect ELISA using an array of nine biotinylated peptides that spanned the epitopes recognised by the 4D11 and 9H4 mAbs (peptides A-I) (Table 3). Peptides C and D spanned the 9H4 epitope, whilst peptides E to G spanned the 4D11 epitope. […] However, the response against MSP2 was largely dominated by a single mouse in the group.

3D7 merozoites = assay: Merozoite ELISA with pooled mouse sera, 3D7 merozoites; type: in vivo, P. falciparum; conditions: pooled sera of immunised mice, two-fold dilutions from 1:500; merozoites 1 × 10^7/well; OD 450 nm; rank order in words
Protocol: The reactivity of mouse polyclonal antibodies with merozoites was determined by ELISA using merozoites from both the 3D7 and FC27 (D10 clone) strains of P. falciparum. The parasites were cultured in human erythrocytes at a haematocrit of 3% in RPMI media supplemented with […]. Viable merozoites were isolated as described previously. Highly synchronised late-stage schizonts were magnet-purified via a MACS magnet separation column (Miltenyi Biotec, Macquarie Park, Australia) and treated with E64 protease inhibitor (ThermoFisher Scientific, Scoresby, Australia) until mature merozoites were formed. Merozoites were released forcing them through a 1.2 µm filter.
Purified whole merozoites were resuspended in PBS supplemented with a cocktail of protease inhibitors (Roche, Castle Hill, Australia). Isolated merozoites were used to coat Nunc Maxisorp™ plates at 1 × 10^7/well and incubated overnight at 4 °C. The plates were then blocked with 1% casein in PBS at 37 °C for 2 h (or overnight at 4 °C). Pooled sera samples were added to wells at two-fold serial dilution in duplicate with a starting dilution of 1:500 and incubated at RT for 1 h. The plates were further incubated with HRP-conjugated goat anti-mouse IgG antibody diluted at 1:1000 in 0.1% casein in PBS at RT for 1 h. The plates were washed six times with PBS between each incubation step. Finally, 3,3′,5,5′-tetramethylbenzidine (TMB) substrate (Thermo Fisher Scientific, Scoresby, Australia) was added to the wells for the development of colour for 15 min and the reaction was stopped with 1 M sulfuric acid. The OD was measured at 450 nm.
The ability to induce an immune response that can recognise parasite MSP2 is essential in the design of an MSP2-based peptide vaccine. We isolated merozoites from both 3D7 and FC27 (D10 clone) strains of P. falciparum, coated them on ELISA plates and probed them with sera from the immunised mice (Figure 6). mAb 4D11 and the MSP2 mix pre-bleed were also included as positive and negative controls, respectively.

4D11 IgG = assay: SPR competition binding assay, mAb 4D11; parameters: species or system mouse; conditions: read-out: Kd against 4D11 IgG
Protocol: (§1) Affinities for peptide epitopes and dimer peptides to 4D11 and 9H4 IgG were measured by surface plasmon resonance (SPR) (Biacore T200, GE Healthcare, Parramatta, Australia) using a competition assay method developed previously. First, 3D7 MSP2 was immobilised on a CM5 chip. To determine binding, eight three-fold dilutions of peptide, from 10 µM stock were added with 50 nM 4D11/9H4 IgG to compete with the immobilised antigen. A standard curve was established by flowing eight two-fold dilutions of 4D11 or 9H4 IgG from a 100 nM stock solution.
Following the MD simulations, each peptide was synthesised by standard Fmoc synthesis. Orthogonal protection of cysteines was used to ensure that the desired disulfide bond was formed, leaving a single free cysteine for conjugation to an appropriate carrier for immunisation. […] Consequently, disulfide bond formation and cyclisation coupling were performed in solution. To determine if the additions incorporated into the dimer sequence hindered binding to 4D11, SPR was used to measure their binding affinity to the mAb (Table 2). […] For immunisations, the commonly used carrier protein, keyhole limpet hemocyanin (KLH) was chosen. As conjugation to KLH required a free thiol, an additional cysteine residue was included in all of the peptides (Figure 2).

9H4 IgG = assay: SPR competition binding assay, mAb 9H4; parameters: species or system mouse; conditions: SPR competition assay (Biacore T200); 3D7 MSP2 immobilised on CM5 chip; eight three-fold dilutions of peptide from 10 µM with 50 nM 9H4 IgG; alanine scan of 16-residue MSP2_207–222; read-out: Kd against 9H4 IgG
Protocol: as §1
In our previous work, the minimal epitope and key residues involved in 4D11 binding were defined as the 8-residue peptide 3D7-MSP2_215–222, with Lys216, Glu217 and Asn218 crucial for binding. To characterise the epitope of 9H4 and compare it with that of 4D11, the same alanine-scan peptides were used to probe 9H4 binding (Figure 1A,B). Affinities for 9H4 binding were measured by SPR, using a competition binding assay described previously.

[2] = SPR competition binding assay, peptides for KLH conjugation (Table 2), 3D7 MSP2 on CM5 chip, 50 nM 4D11 IgG
[3] = SPR competition assay (Biacore T200), 3D7 MSP2 immobilised on CM5 chip, eight three-fold dilutions of peptide from 10 µM with 50 nM 4D11 IgG, alanine scan of 16-residue MSP2_207–222

Compound	specificity of the induced antibodies (peptide array A-I) [1]	reactivity of pooled sera with 3D7 merozoites (3D7 merozoites)	Kd (4D11 IgG; [2]) [nM]	Kd (9H4 IgG) [nM]	Kd (4D11 IgG; [3]) [nM]
CC(=O)N[C@@H](CO)C(=O)N[C@@H](CCC(N)=O)C(=O)N[C@@H](CCCCN)C(=O)N[C@@H](CCC(=O)O)C(=O)N[C@H]1CSSC[C@@H](C(=O)NCC(=O)N[C@@H](C)C(=O)N[C@@H](C)C(=O)N[C@@H](CS)C(N)=O)NC(=O)[C@H](CC(N)=O)NC(=O)[C@H](CCC(=O)O)NC(=O)[C@H](CCCCN)NC(=O)[C@H](CC(N)=O)NC(=O)CNC(=O)[C@H](CC(=O)O)NC(=O)[C@H]([C@@H](C)O)NC1=O [Peptide A1] (Ac-SQKECTDGNKENCGAAC-NH2; disulfide 5-13)	primarily against peptides C and D	followed by K209A, A1, C1 and L1	200		
CC(=O)N[C@@H](CC(N)=O)C(=O)N[C@@H](CCCCN)C(=O)N[C@@H](CCC(=O)O)C(=O)N[C@@H](CC(N)=O)C(=O)N[C@H]1CSSC[C@@H](C(=O)NCC(=O)N[C@@H](C)C(=O)N[C@@H](C)C(=O)N[C@@H](CS)C(N)=O)NC(=O)[C@H](CC(N)=O)NC(=O)[C@H](CCC(=O)O)NC(=O)[C@H](CCCCN)NC(=O)[C@H](CC(N)=O)NC(=O)CNC(=O)[C@H](C)NC(=O)[C@H](C)NC(=O)CNC1=O [Peptide L1] (Ac-NKENCGAAGNKENCGAAC-NH2; disulfide 5-14)	almost exclusively directed to the 4D11 epitope	followed by K209A, A1, C1 and L1	470		
CC(=O)N[C@@H](CO)C(=O)N[C@@H](CCC(N)=O)C(=O)N[C@@H](C)C(=O)N[C@@H](CCC(=O)O)C(=O)N[C@H]1CSSC[C@@H](C(=O)NCC(=O)N[C@@H](C)C(=O)N[C@@H](C)C(N)=O)NC(=O)[C@H](CC(N)=O)NC(=O)[C@H](CCC(=O)O)NC(=O)[C@H](CCCCN)NC(=O)[C@H](CC(N)=O)NC(=O)CNC(=O)[C@H](CC(=O)O)NC(=O)[C@H]([C@@H](C)O)NC1=O [Peptide K209A] (Ac-SQAECTDGNKENCGAA-NH2; disulfide 5-13)	shifted antibody recognition towards the 4D11-specific epitope represented by peptides E and F	followed by K209A, A1, C1 and L1	200	7300	300
C[C@@H]1NC(=O)CNC(=O)[C@@H]2CSSC[C@H](NC(=O)[C@H](CC(N)=O)NC(=O)[C@H](CCC(=O)O)NC(=O)[C@H](CCCCN)NC(=O)[C@H](CC(N)=O)NC(=O)CNC(=O)[C@H](C)NC1=O)C(=O)NCC(=O)N[C@@H](C)C(=O)N[C@@H](C)C(=O)N[C@@H](CS)C(=O)N[C@@H](CC(N)=O)C(=O)N[C@@H](CCCCN)C(=O)N[C@@H](CCC(=O)O)C(=O)N[C@@H](CC(N)=O)C(=O)N2 [Peptide C1] (cyclo(NKENCGAAGNKENCGAAC); disulfide 5-14)	almost exclusively directed to the 4D11 epitope	followed by K209A, A1, C1 and L1	440		
CC(=O)N[C@@H](C)C(=O)N[C@@H](CCC(N)=O)C(=O)N[C@@H](CCCCN)C(=O)N[C@@H](CCC(=O)O)C(=O)N[C@H]1CSSC[C@@H](C(=O)NCC(=O)N[C@@H](C)C(=O)N[C@@H](C)C(N)=O)NC(=O)[C@H](CC(N)=O)NC(=O)[C@H](CCC(=O)O)NC(=O)[C@H](CCCCN)NC(=O)[C@H](CC(N)=O)NC(=O)CNC(=O)[C@H](CC(=O)O)NC(=O)[C@H]([C@@H](C)O)NC1=O [Peptide S207A] (Ac-AQKECTDGNKENCGAA-NH2; disulfide 5-13)				2900	500
